# Test results taken from publication PMC9571608, “Detection of Bitterness in Vitamins Is Mediated by the Activation of Bitter Taste Receptors” (Nutrients, 2022).
# Values joined by “and” are separate entries in the source; they are usually repeats but may differ in a detail not shown here. Equal values may be shown once. Where a name gives a salt, the structure may show the parent alone.
# What was measured:
# TAS2R38 = molecular target: T1, TAS2R38 (Homo sapiens, UniProt P59533); assay: Calcium mobilization assay, cells transiently expressing TAS2R38; assay type: cell-based; on TAS2R Receptor 38 response: key: +: positive responses (lines with background color)
# T1 construct: expressed in transfected cells; host or cells: HEK293T cells stably expressing Gα16gust44
# T1 sequence (P59533 1-333): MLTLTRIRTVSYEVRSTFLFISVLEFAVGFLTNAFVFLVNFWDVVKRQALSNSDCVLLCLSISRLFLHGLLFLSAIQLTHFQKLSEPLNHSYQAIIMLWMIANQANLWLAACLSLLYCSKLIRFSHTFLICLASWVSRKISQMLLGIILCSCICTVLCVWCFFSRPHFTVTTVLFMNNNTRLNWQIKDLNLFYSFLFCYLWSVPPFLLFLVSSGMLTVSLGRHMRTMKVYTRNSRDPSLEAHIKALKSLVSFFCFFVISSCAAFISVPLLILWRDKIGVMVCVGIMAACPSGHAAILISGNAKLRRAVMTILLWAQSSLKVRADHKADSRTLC
# Method: (§1) A functional expression study was carried out as described previously. TAS2R expression vectors (pcDNA5FRT-SST3-TAS2R-HSV and pEAK-10-SST3-TAS2RHSV) were kindly provided by Wolfgang Meyerhof (German Institute of Human Nutrition Postdam-Rehbruecke, Nuthetal, Germany). For all constructs, the N-terminus contained the first 45 amino acids of rat somatostatin 3 (SST3) to improve membrane targeting. A sequence coding for a herpes simplex virus glycoprotein D epitope (HSV-tag) was added at the C-terminus to allow immunocytochemical detection of the receptor [13, 14, 23, 24]. HEK293T cells stably expressing the chimeric G protein α subunit Gα16gust44 [25, 26] were seeded into poly-D-lysine-coated 96-well black plates (0.35 × 10^5 cells/well) in high-glucose DMEM supplemented with 2 mM GlutaMAX, 10% dialysed fetal bovine serum penicillin/streptomycin, and G418 (400 µg/mL), and then placed under a humidified and controlled atmosphere (37 °C and 6.3% CO2) overnight. […]
# (§2) Approximately 24–26 h after transfection, cells were loaded for 1 h at 37 °C with Fluo4-AM (2 µM, Molecular Probes), which had been previously mixed with pluronic acid F-127 (0.01%) in C1 buffer (130 mM NaCl, 5 mM KCl, 10 mM HEPES, 2 mM CaCl2, 10 mM pyruvic acid, pH 7.4, 300 mOsm) containing 2.5 mM probenecid (Life Technologies). […] The calcium signal was recorded for 90 s after injection of a range of compounds using a Flexstation 3 fluorometric imaging plate reader (Molecular Devices) at a wavelength of 510 nm after excitation at 488 nm. All substance concentrations were measured in triplicate in at least three independent experiments. […]
# (§3) To obtain a dose–response curve, the ratio between the maximum variation in fluorescence after ligand addition and the initial fluorescence before addition (ΔF/F0) was calculated for each well. The fluorescence signals collected for each replicate were averaged for the same substance concentration, and the fluorescence changes in the corresponding mock-transfected cells were subtracted. […]
# [1] = system: human bitter taste detection (sensory panel); assay: Human bitter taste detection threshold, three-alternative forced choice (3-AFC), BET method; assay type: in vivo; details: 32 panelists, group BET
# Source text: Based on bibliographic studies, preliminary works performed in the laboratory, and the results of taste receptor functional assays, the following vitamins were included in this study: vitamin B1 (thiamine hydrochloride), vitamin B2 (riboflavin phosphate), vitamin B3 (niacinamide), and vitamin B6 (pyridoxine hydrochloride). These vitamins are present in high quantities in nutritional supplements, safe for humans (except at very high concentrations), and can induce a strong bitter taste. These concentrations were determined according to the toxicity threshold of each compound tested and the maximum daily reference intake. These compounds were prepared in commercial mineral water (Evian®, Evian, France).
# The threshold values for bitter taste detection were determined by 32 panelists (18–65 years old, 14 males and 18 females, without sensory perception disorders, food allergies, drug treatments, or heart, lung, or cardiac pathologies) who were recruited from Dijon (France) and the surrounding areas. An ethical committee approved this study (Personal Protection Committee of Rennes—Ouest V, protocol code 2018A01342-53), and all panelists signed an informed consent form. A sensory test called three-alternative forced choice (3-AFC) was used in accordance with the protocol detailed in NF ISO 13301. Before performing the measurement sessions, four training sessions were provided to familiarize the panelists with the bitter taste, test procedure, and signal acquisition software. In this discriminative test, six series consisting of three samples, which were each encoded using randomly generated three-digit numbers, were simultaneously delivered to the panelists. The six 3-AFC presentations contained two blank samples (commercial mineral water, manufacturer: Evian, France) and ascending concentrations of vitamin solution. Before the test, subjects were advised that each presentation consisted of two samples that contained only water and one sample that contained a taste. For each 3-AFC presentation, subjects were asked to take the samples sequentially from left to right. Then, they placed the entirety of each sample solution in their mouths and carefully gargled to ensure that the solution was dispersed throughout the mouth. A sip-and-spit procedure was used; subjects rinsed their mouths with commercial mineral water between each series of tests. Subjects were asked to indicate which of the samples contained the stimulus. If a subject perceived no difference between the three samples, he or she was asked to choose one (forced choice). The sensory tests were conducted in a room devoted to sensory evaluation. For the case of colored samples, black-colored glasses were used, and tastings were performed under red light. […] The aim of this sensory analysis was to determine the bitter taste detection threshold for these vitamins and not an olfactory detection threshold. Therefore, the measurements were conducted using pinched nose clips. The subjects waited one minute between each series and had to thoroughly rinse their mouths. Four repetitions were performed per subject for each vitamin to obtain statistically interpretable results, which represented a total of 288 samples. During the sensory analysis session, a bitterness detection threshold of only two vitamins was used (36 samples) to avoid the ingestion of a high vitamin quantity, which is potentially harmful. The answers from the panelists were collected using software dedicated to sensory analysis (FIZZ acquisition V.2.51 software).
# The best estimate threshold (BET) method was used to determine the bitter detection threshold for four vitamins. The individual best-estimated detection threshold (BET) was proposed in ASTM E679-04. ASTM E679-04 is a standard practice for the determination of odor and taste thresholds via a forced-choice ascending concentration series method of limits. […]
# TAS2R7 = molecular target: T2, TAS2R7 (Homo sapiens, UniProt Q9NYW3); assay: Calcium mobilization assay, cells transiently expressing TAS2R7; assay type: cell-based; design: expressed in transfected cells; host or cells: HEK293T cells stably expressing Gα16gust44; on TAS2R Receptor 7 response: key: +: positive responses (lines with background color)
# T2 sequence (Q9NYW3 1-318): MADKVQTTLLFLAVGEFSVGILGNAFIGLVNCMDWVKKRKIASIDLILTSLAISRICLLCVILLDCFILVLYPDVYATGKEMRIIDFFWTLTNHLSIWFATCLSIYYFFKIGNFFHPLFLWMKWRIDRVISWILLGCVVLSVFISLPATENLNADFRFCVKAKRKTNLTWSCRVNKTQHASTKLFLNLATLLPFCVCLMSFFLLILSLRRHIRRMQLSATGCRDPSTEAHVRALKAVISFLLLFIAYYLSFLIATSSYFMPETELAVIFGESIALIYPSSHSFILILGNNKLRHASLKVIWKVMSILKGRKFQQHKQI
# Method: A functional expression study was carried out as described previously. TAS2R expression vectors (pcDNA5FRT-SST3-TAS2R-HSV and pEAK-10-SST3-TAS2RHSV) were kindly provided by Wolfgang Meyerhof (German Institute of Human Nutrition Postdam-Rehbruecke, Nuthetal, Germany). For all constructs, the N-terminus contained the first 45 amino acids of rat somatostatin 3 (SST3) to improve membrane targeting. A sequence coding for a herpes simplex virus glycoprotein D epitope (HSV-tag) was added at the C-terminus to allow immunocytochemical detection of the receptor [13, 14, 23, 24]. HEK293T cells stably expressing the chimeric G protein α subunit Gα16gust44 [25, 26] were seeded into poly-D-lysine-coated 96-well black plates (0.35 × 10^5 cells/well) in high-glucose DMEM supplemented with 2 mM GlutaMAX, 10% dialysed fetal bovine serum penicillin/streptomycin, and G418 (400 µg/mL), and then placed under a humidified and controlled atmosphere (37 °C and 6.3% CO2) overnight. After 24–26 h of incubation, cells were transiently transfected with TAS2R expression plasmids (120 ng/well) using Lipofectamine 2000 reagent (0.4 µL/well) (Thermo Fisher Scientific, Illkirch-Graffenstaden, France).
# Approximately 24–26 h after transfection, cells were loaded for 1 h at 37 °C with Fluo4-AM (2 µM, Molecular Probes), which had been previously mixed with pluronic acid F-127 (0.01%) in C1 buffer (130 mM NaCl, 5 mM KCl, 10 mM HEPES, 2 mM CaCl2, 10 mM pyruvic acid, pH 7.4, 300 mOsm) containing 2.5 mM probenecid (Life Technologies). Approximately one hour after loading, the plate was rinsed twice with 100 µL of C1 buffer. The calcium signal was recorded for 90 s after injection of a range of compounds using a Flexstation 3 fluorometric imaging plate reader (Molecular Devices) at a wavelength of 510 nm after excitation at 488 nm. All substance concentrations were measured in triplicate in at least three independent experiments. As cell transfection and substances can interfere with cellular viability and calcium assays, all compounds were tested on mock-transfected cells (cells transfected with empty vectors) on the same plates for all substance concentrations used.
# To obtain a dose–response curve, the ratio between the maximum variation in fluorescence after ligand addition and the initial fluorescence before addition (ΔF/F0) was calculated for each well. The fluorescence signals collected for each replicate were averaged for the same substance concentration, and the fluorescence changes in the corresponding mock-transfected cells were subtracted. […] The dose–response data were fitted, and EC50 values were calculated using a four-parameter logistic equation using SigmaPlot software (Systat Software, San Jose, CA, USA). […]
# 25 human TAS2Rs = assay: Taste receptor functional assay, panel of 25 human TAS2Rs; assay type: cell-based; details: lowest concentration that could elicit TAS2R activation
# Method: A functional expression study was carried out as described previously. TAS2R expression vectors (pcDNA5FRT-SST3-TAS2R-HSV and pEAK-10-SST3-TAS2RHSV) were kindly provided by Wolfgang Meyerhof (German Institute of Human Nutrition Postdam-Rehbruecke, Nuthetal, Germany). For all constructs, the N-terminus contained the first 45 amino acids of rat somatostatin 3 (SST3) to improve membrane targeting. A sequence coding for a herpes simplex virus glycoprotein D epitope (HSV-tag) was added at the C-terminus to allow immunocytochemical detection of the receptor [13, 14, 23, 24]. […]
# as §2
# TAS2R14 = molecular target: T3, TAS2R14 (Homo sapiens, UniProt Q9NYV8); assay: Calcium mobilization assay, cells transiently expressing TAS2R14; assay type: cell-based; on TAS2R Receptor 14 response: key: +: positive responses (lines with background color)
# T3 construct: expressed in transfected cells; host or cells: HEK293T cells stably expressing Gα16gust44
# T3 sequence (Q9NYV8 1-317): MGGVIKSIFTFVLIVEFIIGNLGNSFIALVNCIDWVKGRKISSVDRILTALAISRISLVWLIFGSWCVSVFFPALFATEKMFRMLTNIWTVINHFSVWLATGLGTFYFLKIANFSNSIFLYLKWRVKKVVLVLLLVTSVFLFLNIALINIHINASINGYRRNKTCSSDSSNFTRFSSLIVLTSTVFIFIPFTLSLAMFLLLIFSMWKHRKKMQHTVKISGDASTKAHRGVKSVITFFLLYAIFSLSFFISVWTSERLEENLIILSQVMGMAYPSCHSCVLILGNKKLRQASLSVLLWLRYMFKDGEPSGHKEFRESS
# Method: as §1, §2, §3
# [2] = HEK293T-Gα16gust44 cells, calcium signal, up to M.A.C
TAS2R38 activation (TAS2R38; 1 mM),TAS2R Receptor 38 response (TAS2R38; [2]),"EC50 (TAS2R38; TAS2R38-expressing HEK293T cells, Fluo-4 calcium response, read-out: EC50 (half-maximal TAS2R38 activation)) [mM]",TAS2R7 response (TAS2R7; 100 mM),TAS2R Receptor 7 response (TAS2R7; [2]),"EC50 (TAS2R7; TAS2R7-expressing HEK293T cells, Fluo-4 calcium response, read-out: EC50 (half-maximal TAS2R7 activation)) [mM]",TAS2R14 response (TAS2R14; 100 mM),TAS2R Receptor 14 response (TAS2R14; [2]),"EC50 (TAS2R14; TAS2R14-expressing HEK293T cells, Fluo-4 calcium response, read-out: EC50 (half-maximal TAS2R14 activation)) [mM]",SMILES,"Human Bitter Taste Detection Threshold ([1]; Figure 3, aqueous solution) [mM]","Human Bitter Taste Detection Threshold ([1]; aqueous solution (mineral water), nose clips)","Human Bitter Taste Detection Threshold ([1]; aqueous solution (mineral water), nose clips, listed as B6) [mM]","Human Bitter Taste Detection Threshold ([1]; aqueous solution (mineral water), nose clips, listed as vitamin B6) [mM]",Cellular Bitter Taste Detection Threshold (25 human TAS2Rs)
strongly activate,+,0.29 ± 0.2,–,–,–,–,–,–,"CC1=C(/C=C/C(C)=C/C=C/C(C)=C/C=O)C(C)(C)CCC1 [Vitamin A, retinal]",–,–,–,–,–
–,–,–,–,–,–,–,–,–,"NC(=O)c1cccnc1 [Vitamin B3, niacinamide]",5.5,5.5 mM and 5.50 mM,–,–,–
–,–,–,robust response,+,25.5 ± 11.8,robust response,+,10.5 ± 1.47,"Cc1ncc(CO)c(CO)c1O [Vitamin B6, pyridoxine hydrochloride]",5.2,–,5.20,5.2,1 mM and 1.00 mM
